The values that follow come from BindingDB's records for doi:10.1016/S0960-894X(97)10016-6 (1997).

In the experiment the target is T1, Progesterone receptor (Oryctolagus cuniculus, UniProt P06186).
T1 sequence (P06186 whole entry): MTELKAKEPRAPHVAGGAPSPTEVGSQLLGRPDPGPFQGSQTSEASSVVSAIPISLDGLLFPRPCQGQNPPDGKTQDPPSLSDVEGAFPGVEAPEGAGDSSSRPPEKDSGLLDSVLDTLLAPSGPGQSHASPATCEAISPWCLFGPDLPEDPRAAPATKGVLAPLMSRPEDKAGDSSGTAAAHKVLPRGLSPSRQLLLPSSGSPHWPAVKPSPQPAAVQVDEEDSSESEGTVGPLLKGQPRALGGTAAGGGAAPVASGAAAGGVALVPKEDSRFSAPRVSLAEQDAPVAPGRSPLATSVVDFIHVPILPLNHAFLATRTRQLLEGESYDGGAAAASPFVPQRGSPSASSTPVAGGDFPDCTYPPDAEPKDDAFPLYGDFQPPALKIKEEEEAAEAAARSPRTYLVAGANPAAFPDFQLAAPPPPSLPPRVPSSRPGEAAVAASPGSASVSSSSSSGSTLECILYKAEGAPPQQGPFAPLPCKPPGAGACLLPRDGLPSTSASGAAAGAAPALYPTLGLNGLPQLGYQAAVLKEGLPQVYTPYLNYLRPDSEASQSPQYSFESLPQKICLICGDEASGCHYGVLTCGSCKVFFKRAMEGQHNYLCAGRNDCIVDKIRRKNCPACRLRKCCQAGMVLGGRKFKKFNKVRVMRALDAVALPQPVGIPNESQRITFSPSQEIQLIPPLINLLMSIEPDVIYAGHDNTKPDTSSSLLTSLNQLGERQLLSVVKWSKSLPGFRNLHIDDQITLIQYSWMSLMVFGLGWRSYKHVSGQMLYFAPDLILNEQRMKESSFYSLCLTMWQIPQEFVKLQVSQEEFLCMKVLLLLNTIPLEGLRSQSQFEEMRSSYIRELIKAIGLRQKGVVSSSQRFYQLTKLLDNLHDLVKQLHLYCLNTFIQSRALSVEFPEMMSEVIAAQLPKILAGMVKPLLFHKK
The experiment in a line: ChEBML_159701. The text has this:
Binding affinity determined by ability to displace [3H]R5020 radioligand using uterine progesterone receptor obtained from estrogen-primed rabbit

Structures are written as SMILES. Bounds are passed on as bounds.

What is called IC50 is the concentration that inhibits the measured activity by half. For the compound `O=C(NNCC1=NN(c2ccc(F)cc2)C2C(Cc3cccc4ccccc34)CCCC12)c1ccccc1` (configuration not stated), the half-maximal inhibitory concentration (IC50) was more than 10 µM.

In turn, `O=S(=O)(NNCC1=NN(c2ccc(F)cc2)C2C(Cc3cccc4ccccc34)CCCC12)c1ccccc1` (configuration not stated) [1-(4-Fluoro-phenyl)-3-(N'-[(E)-methylene]benzenesulfonohydrazide)-7-naphthalen-1-ylmethyl-octahydro-indazole] had a half-maximal inhibitory concentration (IC50) of more than 10 µM.
